The results in this text go back to patent US6627772B2, “Preparation of N-[2-(carboxymethoxy) ethyl]-N-(carboxymethyl) glycine” (The Dow Chemical Company, priority 1999, dated 2003).

SMILES strings stand for the structures.

The nature of series [1]: Copper titration with Murexide indicator. Particulars: 2 g (0.009 mmol) in 100 mL water, 0.01 molar copper chloride, approximately pH 8, sodium acetate buffer. The series is classed as physicochemical. Here is the method: Copper titration value is used to measure the extent of biodegradation of the chelating agents during the procedure. Titration is performed using ammonium purpurate (indicator for complexometric titration, commercially available from Aldrich Chemical Co., Inc. under the trade designation Murexide) at approximately pH 8, and using sodium acetate as buffer. Titration of […] N-[2-(carboxymethoxy)ethyl]-N-(carboxymethyl)glycine (0.009 mmol) in 100 mL water with 0.01 molar copper chloride gives an endpoint of 0.99 mL, representing a 1:1 chelation of copper. Analysis is performed daily for a period of 28 days.

Series [2] can be described thus: Calcium oxalate titration (calcium chelation capacity). The series is classed as physicochemical. How it is done: The applicability of N-[2-(carboxymethoxy)ethyl]-N-(carboxymethyl)glycine for use in hard surface cleaners, is measured by the calcium oxalate titration.
For titration with calcium oxalate, N-[2-(carboxymethoxy)ethyl]-N-(carboxymethyl)glycine (between 1 to 2 millimoles) is placed in a 60 mL beaker. After the addition of 30 mL deionized water and 5 mL of a 3% ammonium oxalate solution, the pH is slowly brought to about 10 by the addition of 20% sodium hydroxide while stirring. The pH is then adjusted to about 11.6 with sodium hydroxide and the solution is titrated with 0.1 M CaCl2 to the first permanent turbidity. The chelation valve is then determined from the mL of titrant used based on the following calculation.
Chelation Value=(mL titrant used×molarity titrant)×100 mg CaCO3 per mmole÷sample wt. in grams×activity of sample (as acid form)
The chelation value is the mg of CaCO3 that can be chelated by one active gram of a chelant, such as N-[2-(carboxymethoxy)ethyl]-N-(carboxymethyl)glycine (IX).
The turbidity produced in the oxalate titration is due to the formation of calcium oxalate. The results for the titration of N-[2-(carboxymethoxy)ethyl]-N-(carboxymethyl)glycine in the presence of oxalate is compared with iminodiacetic acid (IDA) and given in Table II below.

In turn, `O=C(O)COCCN(CC(=O)O)CC(=O)O` [(IX), N-[2-(carboxymethoxy)ethyl]-N-(carboxymethyl)glycine] returned a Copper titration endpoint in series [1] of 0.99 mL. Moreover, the “Chelation value compared with IDA (in words)” value in series [2] was “far superior to IDA”. In addition, the “Chelation Value” in series [2] (pH about 11.6, 0.1 M CaCl2 to first permanent turbidity) is reported as 423 mg of CaCO3 per active gram of.
